Data taken from patent US5439816A, “Carboxymethylcellulase isolated from bacillus sp. PKM-5430 (FERM BP-4087)” (Kao Corporation, priority 1991, dated 1995).

Columns and labels:
[1] = system: Carboxymethylcellulase 5430; test: Substrate specificity of Carboxymethylcellulase 5430 (hydrolytic activities, DNS method / p-nitrophenol release); assay type: biochemical, Bacillus sp. PKM-5430
Protocol: (§1) Activities were determined by the DNS method (J. R. Summer and G. F. Somers, Laboratory Experiments in Biological Chemistry, Academic Press, New York, U.S.A., 1944). Namely, 0.1 ml of a suitably diluted enzyme solution was added to 0.9 ml of a 1.1% (w/v) solution of a CMC (A01MC) substrate in 0.1M glycine-NaOH buffer (pH: 9.0). After a 20-minute reaction at 40° C., 1 ml of 0.05% (w/v) 3,5-dinitrosalicylic acid solution (product of Wako Pure Chemical Industries, Ltd.) was added, and the resulting mixture was immediately placed in a boiling water bath for 5 minutes, followed by cooling in an iced water bath. Then, 4 ml of deionized water was added further, afterwhich, colorimetry was conducted by measuring an absorbance at 535 nm. With respect to enzymatic activity, the amount of enzyme, which liberates reducing sugars corresponding to 1 μmole of glucose for 1 minute, was defined as 1 unit.
(§2) Sodium hydroxide- and phosphoric acid-swollen celluloses were prepared according to the method of Tomita et al. [Y. Tomita, H. Suzuki and K. Nisizawa, J. Biochem., 78, 499(1975)]. The reducing sugar liberated was determined in a similar manner to that of the method (a) except that substrate solutions containing cellulose substrates were used, and the reaction was conducted at 30° C.
(§3) The reducing sugar liberated was determined in a similar manner to that of the method (a) except that substrate solutions containing polysaccharides were used, and the reaction was conducted at 30° C.
(§4) A suitably diluted enzyme solution was added to a solution of 8 mM of a PNPG or PNPC substrate in 0.1M phosphate buffer of pH 7.0 to react them for 20 minutes at 30° C. The p-nitrophenol liberated was determined at 400 nm and the amount formed was calculated.
(§5) The enzyme is also active toward cellobiose, PNPG, PNPC, cellulose powder and phosphoric acid-swollen cellulose.

[2] = system: Carboxymethylcellulase 5812; test: Substrate specificity of Carboxymethylcellulase 5812 (hydrolytic activities, DNS method / p-nitrophenol release); assay type: biochemical, Bacillus sp. PKM-5812
Protocol: as §1, §2, §3, §4, §5

[3] = substrate 8 mM, 0.1M phosphate buffer pH 7.0, 30° C., activity toward CMC taken as 100%

Structure (SMILES): O=[N+]([O-])c1ccc(O[C@@H]2O[C@H](CO)[C@@H](O)[C@H](O)[C@H]2O)cc1 [PNPG, p-nitrophenyl-β-D-glucopyranoside]
- activity of the enzyme toward substrate [1]: active
- Relative activity (%) [1, 3]: 0.8%
- activity of the enzyme toward substrate [2]: active
- Relative activity (%) [2, 3]: 0.2%
